In US20090088329A1, “MULTICOMPONENT PROTEIN MICROARRAYS” (priority 2002, published 2009):
Structures can show the parent of a compound that is named as a salt.

Experiments:
[1] = biological target: rhodamine-labelled calmodulin (CaM)/rhodamine-labelled melittin complex (Homo sapiens, UniProt P0DP23); experiment: Calmodulin-melittin sol-gel microarray, rhodamine self-quenching fluorescence; assay type: binding; settings: for effect on CaM-melittin complex / fluorescence intensity: addition to array, 20:1 molar ratio to CaM for guanidine hydrochloride
Text: A third system involving protein-peptide interactions consisted of rhodamine-labelled calmodulin (CaM) and rhodamine-labelled mellitin, and was based on a slightly different fluorescence-based screening method utilizing these same biomolecules entrapped in sol-gel derived monoliths. In the absence of antagonists or denaturants (such as guanidine hydrochloride), these two species exist in a complex that brings the two rhodamine labels into close proximity, resulting in self-quenching and thus a low fluorescence signal.
Another example of a sol-gel derived microarray involving a protein-peptide interaction has been developed consisting of rhodamine-labelled calmodulin (CaM) and rhodamine-labelled melittin co-entrapped in a sodium silicate derived sol-gel. In the absence of antagonists, these two species exist in a complex that brings the two rhodamine labels into close proximity, resulting in a self-quenching dimer and thus a low fluorescence signal.
Columns 1 & 5 contain the protein-protein interaction between CaM and Mellitin. Both of which are labelled with rhodamine. Columns 2 & 4 are blank and contain only buffer. Column 3 contains CaM—Rhodamine alone and acts as a positive control. Upon addition of GdHCl (2M) to the top of the array and imaging every 20 s, the CaM-Mel columns increased in fluorescence over 2-fold (Panel B), while the positive control increased slightly initially but reached a relatively low steady-state value quickly (see graph, FIG. 7)

[2] = biological target: T1, Urease (type IX from Jack Beans) (Canavalia ensiformis, UniProt P07374); experiment: biochemical; assay type: biochemical; settings: for Ki: 20 mM urea; for Km / kcat: Urease/FD; for kcat: pH 5.1
T1 construct: purchased Sigma (St. Louis, Mo.) type IX
T1 sequence (P07374 whole entry, looked up): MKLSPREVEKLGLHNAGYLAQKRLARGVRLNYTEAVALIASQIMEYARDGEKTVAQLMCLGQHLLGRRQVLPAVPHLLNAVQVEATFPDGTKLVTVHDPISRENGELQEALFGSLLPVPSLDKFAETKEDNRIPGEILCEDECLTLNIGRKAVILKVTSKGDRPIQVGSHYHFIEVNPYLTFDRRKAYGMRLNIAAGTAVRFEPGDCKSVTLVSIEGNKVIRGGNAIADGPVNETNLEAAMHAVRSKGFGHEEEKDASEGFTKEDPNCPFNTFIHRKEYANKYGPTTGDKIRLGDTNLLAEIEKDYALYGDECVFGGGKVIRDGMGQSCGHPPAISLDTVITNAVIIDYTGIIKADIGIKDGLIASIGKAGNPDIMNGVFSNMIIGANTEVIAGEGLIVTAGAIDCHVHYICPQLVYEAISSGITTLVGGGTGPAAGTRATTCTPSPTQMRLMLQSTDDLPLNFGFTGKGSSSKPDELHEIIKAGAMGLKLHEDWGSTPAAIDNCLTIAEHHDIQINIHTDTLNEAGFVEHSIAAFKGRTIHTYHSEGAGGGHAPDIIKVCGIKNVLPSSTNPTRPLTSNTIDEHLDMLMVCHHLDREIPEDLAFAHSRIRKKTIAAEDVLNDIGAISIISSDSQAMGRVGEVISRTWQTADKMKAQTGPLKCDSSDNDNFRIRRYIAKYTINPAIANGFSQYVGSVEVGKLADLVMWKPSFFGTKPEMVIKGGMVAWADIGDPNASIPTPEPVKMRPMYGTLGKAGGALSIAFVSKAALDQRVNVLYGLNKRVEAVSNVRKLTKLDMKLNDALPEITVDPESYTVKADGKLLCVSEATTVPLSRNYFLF
Procedure: Preparation of Spotting Solutions: GOx and HRP were dissolved at concentration of 0.4 mg.mL^−1 (250 units.mg^−1) and 0.01 mg.mL^−1 (1000 units.mg^−1), respectively, in 50 mM sodium phosphate buffer, pH 7.4 to form the protein stock solutions. The Amplex Red reagent was made up to a stock concentration of 10 mM. Urease and fluorescein dextran were dissolved at concentrations of 2 mg.mL^−1 (35,400 units.g^−1) and 25 μM, respectively, in 50 mM Tris buffer containing 50 mM NaCl, pH 8 to form their respective stock solutions. GOx/HRP assay samples were prepared to a total volume of 50 μL by mixing 3 μL of each of the GOx and HRP stock solutions, 39 μL of sodium phosphate buffer and 5 μL of the Amplex Red dye solution. Negative and blank control samples were prepared in the same way except that phosphate buffer replaced the missing reagent. Positive control samples contained GOx and HRP as well as 15 μL of 100 μM D-glucose (in buffer) and only 24 μL of buffer. […] Similarly, the blank and positive control samples replaced the missing reagents with Tris buffer while the enzyme selectivity control was obtained by replacing urease with AChE (0.01 mg.mL^−1) in Tris buffer.
Enzyme Assays All enzyme assays and inhibition studies were performed in 96 well plates using a TECAN Safire absorbance/fluorescence platereader operated in fluorescence mode, or on the microarray using time-dependent fluorescence intensity measurements. The enzymatic activity of free and entrapped GOx in 96 well plates was measured by adding 50 μL of a solution containing varying concentrations of glucose to the microtiter well and monitoring of the fluorescence emission at 590 nm for 20 minutes (in solution) or 45 minutes (for entrapped GOx) with excitation at 573 nm. For microarrays, 20 μL of a glucose solution was added to the top of the array, left for 20 seconds and then removed by gently blowing air over the surface, followed by monitoring of fluorescence emission over time. […] Images were acquired before the addition of glucose and then every 30 seconds for 30 minutes after the introduction of glucose using a 30 second integration time per image. For urease, activity and inhibition were measured by adding 100 μL of a solution containing a constant amount of urea (20 mM) in the presence of varying amounts of thiourea (0-100 mM) to the microtiter well and the fluorescence emission of the fluorescein dextran was monitored at 520 nm for 15 minutes (solution) or 45 minutes (entrapped). Microarrays containing urease and fluorescein dextran were first imaged after washing with distilled deionized water (ddH2O, pH 5.1) to provide a constant baseline intensity response. Following this, 20 μL of a urea/thiourea solution was added to the top of the array, which was then covered with a coverslip to minimize solvent evaporation. The emission intensity of fluorescein dextran was measured every 20 seconds for 10 minutes using a 10 second integration time per image following the addition of the urea solution to the array. All samples were tested within 24 hours of being prepared.
For both enzymes studied the initial rate of change in fluorescence intensity was converted to a change in product concentration with time using calibration curves relating the emission intensity of fluorescein to the concentration of ammonium carbonate (for urease) or hydrogen peroxide (for GOx). The Michaelis constants (KM) and catalytic rate constants (kcat) for the enzymes were calculated by generating either double reciprocal (Lineweaver-Burk) plots relating (initial rate of product formation)^−1 to (substrate concentration)^−1 or Hanes-Wolff plots, and fitting these to a linear model. Inhibition constants (KI) for urease were calculated by assessing the changes in the initial rate values for the enzyme in the presence of varying levels of inhibitor, according to the equation: […]

urease = urease (Canavalia ensiformis, UniProt P07374); settings: cited from earlier work
Chain of urease (P07374 whole entry, looked up): as above

[3] = entrapped enzyme in platereader

N=C(N)c1ccccc1 [benzamidine]
effect on CaM-melittin complex / fluorescence intensity [1]: no changes in intensity above that obtained for CaM alone

N=C(N)N [guanidine hydrochloride]
increase in fluorescence of CaM-Mel columns ([1]; GdHCl 2M added to top of array, imaging every 20 s): over 2 fold | effect on CaM-melittin complex / fluorescence intensity [1]: the complex was dissociated

NC(N)=S [thiourea]
Ki ([2]; urease entrapped in bulk sodium silicate glass, platereader): 54 ± 2 mM | Ki ([2]; urease sol-gel microarray): 62 ± 7 mM | Ki (urease; urease in solution, literature range, different pH values (5.5 to 8)): 48 to 85 mM

NC(N)=O [urea]
Km [2, 3]: 2350 ± 30 µM | kcat [2, 3]: 1.33 ± 0.02 s⁻¹ | Km ([2]; sol-gel microarray): 1900 ± 100 µM | kcat ([2]; sol-gel microarray): 1.1 ± 0.1 s⁻¹ | Km ([2]; solution, platereader): 1300 ± 200 µM | kcat ([2]; solution, platereader): 78 ± 2 s⁻¹ | kcat of entrapped protein lower than in solution ([2]; urease, entrapped vs solution): up to 70 fold | Km (urease; urease, literature): 2900 µM
